These results are taken from US20230149409A1, “TREATMENT OF HUMAN PAPILLOMAVIRUS-ASSOCIATED CANCERS BY PD-L1 INHIBITORS” (priority 2021, published 2023).

In experiment [1] the target is T1, PD-L1 on CD14+ cells in human whole blood (Homo sapiens, UniProt Q9NZQ7).
T1 construct: Cells were gated on CD14+ (BD Biosciences) and PD-L1 expression determined by mean fluorescence intensity; host or cells: CD14+ cells in normal human whole blood, stimulated with human interferon gamma
Description: PD-L1 whole blood internalization assay. Particulars: 1 ng/mL interferon γ, CD14+ gated, 24 hour. The experiment is classed as cell-based. The protocol: PD-L1 Whole Blood Internalization Assay
To determine PD-L1 internalization in human whole blood, normal human blood (Biological Specialty Corp, Colmar. PA) was incubated in the presence or absence of a concentration range of test compounds and 1 ng/mL human interferon γ (R&D Systems Inc. Minn. MN) in a 96 well “2 mL Assay Block” (Corning, Corning NY) for 18-20 hours at 37 °C. Blood was then stained with PD-L1 (MIH1, eBioscience; or BD Biosciences San Jose, CA), CD14 (Life Technologies, Carlsbad, CA) for 30 minutes in the dark at room temperature. Whole Blood/red cells were lysed/fixed (lysis buffer BD Biosciences) for 5 minutes at 37 °C in the dark and then centrifuged at 1600 RPM for 5 minutes. Cells were resuspended in Stain Buffer (BD Bioscience, San Jose, CA) and transferred into 96 well round bottom plates (Coming). Cells were gated on CD14+ (BD Biosciences) and PD-L1 expression determined by mean fluorescence intensity (MFI) (BD LSRFortessa® X-20). IC50 determination was performed by fitting the curve of compound percent inhibition versus the log of the compound concentration using the GraphPad Prism 7.0 software.

Experiment [2] has as its system PD-L1 (PD-L1 aAPC/CHO-K1 cells, Jurkat-PD-1-NFAT effector cells). Description: Nuclear Factor of Activated T-cells (NFAT) assay. The experiment is classed as cell-based. Particulars: Cricetulus griseus; PD-L1 aAPC/CHO-K1 + Jurkat-PD-1-NFAT cells, 24 hours. The protocol:
Nuclear Factor of Activated T-cells (NFAT) Assay
PD-L1 aAPC/CHO-K1cells (Promega) were maintained in F-12 medium with addition of 10% FBS, 200 µg/mL Hygromycin B, 250 µg/mL Geneticin (G418). […] The culture media of PD-L1 aAPC/CHO-K1 cells were first replaced with assay medium (RPMI1640 medium with 1% FBS). The PD-L1 aAPC/CHO-K1cells were then added in a white 384-well white clear bottom assay plate (CELLCOAT® Tissue Culture Plates, Greiner Bio-One) at 8000 per well in 10 uL assay medium. […] 5 uL compounds in the assay medium were transferred to the cells with 0.4% DMSO in the final assay at 2 µM. After removing the culture media, 10,000 Jurkat-PD-1-NFAT effector cells in 5 µL assay medium was dispensed into each well. The assay plate was incubated at 37° C., 5% CO2 for 24 hours. […] After 8 minutes incubation at room temperature, luminescence was read at with Pherastar microplate reader (BMG Labtech). The fold of induction (FOI) was calculated based on the ratio of luminescence normalized to the DMSO wells within each assay plate. The maximum percentage of induction was reported based on the ratio between the highest FOI of each compound and the maximum FOI of control compound within each assay plate. Wells with DMSO were served as the negative controls and wells containing control compound with the highest FOI were used as positive controls. EC50 determination was performed by fitting the curve of percent control activity versus the log of the compound concentration using the GraphPad Prism 6.0 software.

Experiment [3] concerns PD-L1 (U2OS/PD-L1 cells, Jurkat-PD-1-SHP cells). Description: Src Homology Region 2 Domain-containing Phosphatase (SHP) assay. The experiment is classed as cell-based. As to conditions: Homo sapiens; U2OS/PD-L1 + Jurkat-PD-1-SHP cells, 2 hours. The method, then: Example 1B. Src Homology Region 2 Domain-containing Phosphatase (SHP) Assay
U2OS/PD-L1 cells (DiscoveRx Corporation) were maintained in McCoy’s 5A medium with addition of 10% FBS, 0.25 µg/mL Puromycin. After removing the culture media, the cell medium was replaced with assay medium (RPMI1640 medium with 1% FBS). The U2OS/PD-L1 cells were then added in 384-well black clear bottom assay plate (CELLCOAT® Tissue Culture Plates, Greiner Bio-One) at 5000 cells per well in 20 uL assay medium. Test compounds were prepared by serial dilution in DMSO and 125 nL compound were first transferred to the 384 REMP plate well (Thermofisher) by ECHO liquid handler (Labcyte) followed with addition of 27.5 uL assay medium. 5 µL/well compounds in the assay medium were transferred to the cell plate with 0.05% DMSO in the final assay at 0.25 µM. Jurkat-PD-1-SHP cells (DiscoveRx Corporation) were cultured in RPMI1640 medium supplemented with 10% FBS, 250 µg/mL Hygromycin B, 500 µg/mL G418. After the replacement of culture media with assay medium, 5,000 Jurkat-PD-1-SHP cells in 20 µL were dispensed into each well. The assay plate was incubated at 37° C., 5% CO2 for 2 hours before 2.5 uL PathHunter reagent 1 (DiscoveRx Corporation) were added to each well. The assay plate was shaken for 1 min at 350 rpm in the dark followed with addition of 10 uL PathHunter reagent 2 (DiscoveRx Corporation). Chemiluminescent signal was recorded with TopCount reader (Perkin Elmer) after incubation at room temperature for 1 hour. Wells with DMSO were served as the positive controls and wells containing no cells were used as negative controls. IC50 determination was performed by fitting the curve of percentage of control activity versus the log of the compound concentration using the GraphPad Prism 6.0 software.

Experiment [4] concerns the target T2, PD-⅟PD-L1 (recombinant human PD-L1 protein and human PD-1 protein) (Homo sapiens, UniProt Q9NZQ7).
T2 construct: Recombinant human PD-L1 protein (19-238) with a His-tag at the C-terminus; purchased AcroBiosystems PD1-H5229 (PD-L1); PD1-H5257 (PD-1)
Description: Homogeneous Time-Resolved Fluorescence (HTRF) PD-1/PD-L1 binding assay. As to conditions: 3 nM PD1, 10 nM PD-L1, 25° C., PBS pH 7.4. The method, then:
Homogeneous Time-Resolved Fluorescence (HTRF) PD-⅟PD-L1 Binding Assay
The assays were conducted in a standard black 384-well polystyrene plate with a final volume of 20 uL. Inhibitors were first serially diluted in DMSO and then added to the plate wells before the addition of other reaction components. The final concentration of DMSO in the assay was 1%. The assays were carried out at 25° C. in the PBS buffer (pH 7.4) with 0.05% Tween-20 and 0.1% BSA. […] PD-L1 and PD-1 proteins were diluted in the assay buffer and 10 uL was added to the plate well. Plates were centrifuged and proteins were preincubated with inhibitors for 40 minutes. The incubation was followed by the addition of 10 uL of HTRF detection buffer supplemented with Europium cryptate-labeled anti-human IgG (PerkinElmer-AD0212) specific for Fc and anti-His antibody conjugated to SureLight®-Allophycocyanin (APC, PerkinElmer-AD0059H). […] Final concentrations in the assay were - 3 nM PD1, 10 nM PD-L1, 1 nM europium anti-human IgG and 20 nM anti-His-Allophycocyanin. IC50 determination was performed by fitting the curve of percent control activity versus the log of the inhibitor concentration using the GraphPad Prism 5.0 software.

Molecules are shown by their SMILES.

A word on the IC50: it is the point on the concentration scale where inhibition reaches its midpoint. What is called EC50 is the concentration needed to bring the measured effect to its halfway point.

T1 sequence (Q9NZQ7 19-290): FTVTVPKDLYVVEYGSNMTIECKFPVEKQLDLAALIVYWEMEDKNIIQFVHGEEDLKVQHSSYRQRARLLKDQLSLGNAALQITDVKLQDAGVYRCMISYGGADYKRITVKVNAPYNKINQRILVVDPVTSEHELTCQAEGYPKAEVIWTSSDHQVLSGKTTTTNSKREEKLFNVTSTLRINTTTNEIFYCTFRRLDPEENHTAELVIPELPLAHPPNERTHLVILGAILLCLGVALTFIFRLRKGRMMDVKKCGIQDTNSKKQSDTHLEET
T2 sequence (Q9NZQ7 19-238): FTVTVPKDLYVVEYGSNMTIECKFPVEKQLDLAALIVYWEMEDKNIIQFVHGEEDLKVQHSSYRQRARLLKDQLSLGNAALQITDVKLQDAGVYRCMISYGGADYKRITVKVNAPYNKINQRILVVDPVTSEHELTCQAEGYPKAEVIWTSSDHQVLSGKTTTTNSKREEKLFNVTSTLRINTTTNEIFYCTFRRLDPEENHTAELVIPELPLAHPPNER

Regarding `Cc1c(Nc2nccc3cc(CN4CC[C@H](O)C4)cnc23)cccc1-c1cccc(-c2nc3cc(CN4CC[C@H](C(=O)O)C4)cc(C#N)c3o2)c1C` [Compound 3], the IC50 in experiment [1] was < 500 nM; in experiment [3], < 10 nM. Further, in experiment [2], the EC50 was < 100 nM.
In the case of `Cc1c(Nc2nccc3cc(CN4CC[C@H](O)C4)cnc23)cccc1-c1cccc(-c2nc3cc(CN4CC[C@@H](C(=O)O)C4)cc(C#N)c3o2)c1C` [Compound 4, (R)-1-((7-cyano-2-(3′-(3-(((S)-3-hydroxypyrrolidin-1-yl)methyl)-1,7-naphthyridin-8-ylamino)-2,2′-dimethylbiphenyl-3-yl)benzo[d]oxazol-5-yl)methyl)pyrrolidine-3-carboxylic acid], the IC50 in experiment [1] is < 500 nM; in experiment [3], < 100 nM. The 50% effective concentration (EC50) in experiment [2] is < 100 nM.
As for `Cc1c(Nc2nccc3cc(CN4CC[C@@H](O)C4)cnc23)cccc1-c1cccc(-c2nc3cc(CN4CC[C@H](C(=O)O)C4)cc(C#N)c3o2)c1C` [Compound 5], the IC50 in experiment [1] is < 500 nM; in experiment [3] it was < 10 nM. Further, the EC50 in experiment [2] is < 100 nM.
For `Cc1c(-c2nc3cc(CN4CCC(C(=O)O)CC4)cc(C#N)c3o2)cccc1-c1cccc(-c2nc3c(s2)CN(C(=O)CN(C)C)C3)c1C` [Compound 6, 1-((7-cyano-2-(3′-(5-(2-(dimethylamino)acetyl)-5,6-dihydro-4H-pyrrolo [3,4-d]thiazol-2-yl)-2,2′-dimethylbiphenyl-3-yl)benzo[d]oxazol-5-yl)methyl)piperidine-4-carboxylic acid] the same measures were < 100 nM, < 10 nM and < 100 nM.
With `Cc1c(Nc2nccc3cc(CN4CC[C@@](C)(O)C4)cnc23)cccc1-c1cccc(NC(=O)c2nc3c(n2C)CCN(C[C@H]2CC[C@@H](C(=O)O)CC2)C3)c1Cl` [Compound 11, cis-4-((2-(2-chloro-3′-(3-(((R)-3-hydroay-3-methylpyrrolidin-1-yl)methyl)-1,7-naphthyridin-8-ylamino)-2′-methylbiphenyl-3-ylcarbamoyl)-1-methyl-6,7-dihydro-1H-imidazo[4,5-c]pyridin-5(4H)-yl)methyl)cyclohexanecarboxylic acid], the IC50 in experiment [1] is < 100 nM; in experiment [3], < 10 nM. Moreover, in experiment [2], the EC50 is < 100 nM.
Consider `CCN(C)CC(=O)N1Cc2nc(-c3cccc(-c4cccc(Nc5nccc6cc(CN7CC[C@@H](C(=O)O)C7)cnc56)c4Cl)c3C)sc2C1` [Compound 13, (R)-1-((8-((2-chloro-3′-(5-(N-ethyl-N-methylglycyl)-5,6-dihydro-4H-pyrrolo[3,4-d]thiazol-2-yl)-2′-methyl-[1,1′-biphenyl]-3-yl)amino)-1,7-naphthyridin-3-yl)methyl)pyrrolidine-3-carboxylic acid], for which the IC50 is < 100 nM in experiment [1] and < 10 nM in experiment [3]. Also, in experiment [2], the 50% effective concentration (EC50) was < 100 nM.
As for `Cc1c(-c2nc3c(s2)CN(C(=O)CN(C)C)C3)cccc1-c1cccc(-c2nc3c(s2)CN(C(=O)CN2CC[C@@H](O)C2)C3)c1C` [Compound 14, (R)-2-(dimethylamino)-1-(2-(3′-(5-(2-(3-hydroaypyrrolidin-1-yl)acetyl)-5,6-dihydro-4H-pyrrolo[3,4-d]thiazol-2-yl)-2,2′-dimethylbipheiryl-3-yl)-4H-pyrrolo [3,4-d]thiazol-5(6H)-yl)ethanone], in experiment [2], the concentration giving a half-maximal response (EC50) was < 500 nM. Moreover, in experiment [3], the IC50 is < 100 nM.
In the case of `Cc1c(Nc2nc(C(F)F)nc3cc(CN4CC[C@@H](O)C4)cnc23)cccc1-c1cccc(-c2nc3cc(CN4CC[C@@H](C(=O)O)C4)cc(C#N)c3o2)c1C` [Compound 25, (R)-1-((7-cyano-2-(3′-(2-(difluoromethyl)-7-(((R)-3-hydroxypyrrolidin-1-yl)methyl)pyrido[3,2-d]pyrimidin-4-ylamino)-2,2′-dimethylbiphenyl-3-yl)benzo [d]oxazol-5-yl)methyl)pyrrolidine-3-carboxylic acid], the IC50 was < 100 nM in experiment [1] and < 10 nM in experiment [4]. Also, the EC50 in experiment [2] is < 100 nM.
With `Cc1c(Nc2nc(C(F)F)nc3cc(CN4CC[C@@](C)(O)C4)cnc23)cccc1-c1cccc(-c2nc3cc(CN4CCC(C(=O)O)CC4)cc(C#N)c3o2)c1C` [Compound 27, (R)-1-((7-cyano-2-(3′-(2-(difluoromethyl)-7-((3-hydroxy-3-methylpyrrolidin-1-yl)methyl)pyrido[3,2-d]pyrimidin-4-ylamino)-2,2′-dimethylbipheiryl-3-yl)benzo[d]oxazol-5-yl)methyl)piperidine-4-caiboxylic acid], the concentration for half-maximal inhibition (IC50) was < 100 nM in experiment [1] and < 10 nM in experiment [4].
For `Cc1c(Nc2nc(C(F)F)nc3cc(CN4CC[C@](C)(O)C4)cnc23)cccc1-c1cccc(-c2nc3cc(CN4CCC(C(=O)O)CC4)cc(C#N)c3o2)c1C` [Compound 28, (S)-1-((7-cyano-2-(3′-(2-(difluoromethyl)-7-((3-hydroxy-3-methylpyrrolidin-1-yl)methyl)pyrido[3,2-d]pyrimidin-4-ylamino)-2,2′-dimethylbipheiryl-3-yl)benzo[d]oxazol-5-yl)methyl)pipendine-4-carboxylic acid] the same measures were < 100 nM and < 10 nM.
